The values below come from PubChem BioAssay (NCI).

Assay in all cases: growth of human tumour cells (NCI), 48 h
The subject of experiment [1] is SF-268 CNS.
The test system of experiment [2] is MALME-3M melanoma.
The test system of experiment [3] is IGROV1 ovarian.
Experiment [4] has as its system U251 CNS.
The test system of experiment [5] is HOP-62 NSCLC.
Experiment [6] concerns RPMI-8226 leukemia.
Experiment [7] concerns OVCAR-8 ovarian.
In experiment [8] the test system is MOLT-4 leukemia.
Experiment [9] has as its system SK-MEL-28 melanoma.
Experiment [10] relates to CAKI-1 renal.
The test system of experiment [11] is KM12 colon.
Experiment [12] relates to SNB-19 CNS.
Experiment [13] has as its system SW-620 colon.
In experiment [14] the test system is NCI-H226 lung.
Experiment [15] concerns XF 498 CNS.
The test system of experiment [16] is SK-OV-3 ovarian.
In experiment [17] the test system is SK-MEL-5 melanoma.
In experiment [18] the test system is HOP-92 NSCLC.
Experiment [19] has as its system HL-60(TB) leukemia.
The subject of experiment [20] is BT-549 breast.

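The compound was tested at five concentrations on cells cultured in 96-well plates, with a 48-hour exposure period. The concentration for full growth arrest is given as TGI.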

In the case of `CS(=O)(=O)c1ccc(-c2cc(-c3ccc(S(C)(=O)=O)cc3)[n+](-c3cc(-c4ccccc4)c([O-])c(-c4ccccc4)c3)c(-c3ccc(S(C)(=O)=O)cc3)c2)cc1`, the TGI in experiment [1], in experiment [2], in experiment [3], in [4], in experiment [5] and in experiment [6] was greater than 100 µM in each case. The TGI in experiment [7], in [8], in experiment [9], in experiment [10], in [11] and in experiment [12] was greater than 100 µM each time. Moreover, the TGI in experiment [13], in experiment [14] and in experiment [15] was greater than 100 µM in each case.
Regarding `O=S(=O)(c1ccccc1)N1N=C2c3ccccc3CCC[C@H]2C1c1ccccc1` (stereo partly drawn), the TGI in [1], in [16], in [2], in [3], in [17] and in experiment [4] was greater than 100 µM throughout. Also, the TGI in [5], in experiment [6], in [7], in experiment [8], in [9] and in [10] was greater than 100 µM in each case. Besides, the TGI in [11], in experiment [18], in experiment [12], in [13], in experiment [14] and in experiment [19] was greater than 100 µM each time. This compound also registered a TGI in experiment [15] greater than 100 µM.
On to `CC(Oc1ccc(OCC2CCCCC2)cc1)C(=O)OCC(=O)c1ccc(-c2ccccc2)cc1` (stereo not drawn), for which the TGI in experiment [1], in experiment [16], in [2], in experiment [3], in experiment [17] and in experiment [4] was greater than 100 µM in each case. Further, the TGI in experiment [7], in experiment [8], in [9], in experiment [11], in experiment [12] and in experiment [14] was greater than 100 µM each time. The TGI in experiment [19] and in experiment [15] was greater than 100 µM throughout.
As to `COc1cccc(C2CC23C(=O)NC(=O)NC3=O)c1` (stereo not drawn), the TGI in [1], in experiment [16], in experiment [2], in [3], in experiment [17] and in experiment [4] was greater than 100 µM in each case. The TGI in [5], in experiment [6], in experiment [7], in experiment [8], in experiment [9] and in experiment [10] was greater than 100 µM throughout. The TGI in [11], in experiment [18], in experiment [12], in experiment [13], in experiment [14] and in experiment [19] was greater than 100 µM throughout. The TGI in [15] is greater than 100 µM.
In the case of `CC1(C)CC(=O)CC(=Nc2ccc([N+](=O)[O-])cc2)C1`, the TGI in experiment [1] was greater than 100 µM; in experiment [16], greater than 100 µM; in experiment [2] it was greater than 100 µM; in [3], greater than 100 µM; in experiment [17] it was greater than 100 µM; in [4], 31.7 µM. Further, the TGI in experiment [5], in experiment [6], in experiment [7], in experiment [8], in experiment [9] and in experiment [11] was greater than 100 µM each time. For the same compound, the TGI in experiment [14], in experiment [19] and in experiment [15] was greater than 100 µM each time.
`C=C(C)C1CCC2(C)CC1c1c(c(C)cc3c1[nH]c1ccccc13)O2` (stereo not drawn): the TGI in experiment [1], in experiment [16], in experiment [2], in [3], in experiment [17] and in experiment [4] was greater than 25 µM in each case. In addition, the TGI in experiment [5], in [6], in experiment [7], in experiment [8], in experiment [9] and in experiment [11] was greater than 25 µM each time. The TGI in experiment [18], in experiment [12], in experiment [13], in experiment [14], in experiment [19] and in experiment [15] was greater than 25 µM throughout.
For the compound `CCCCC/C=C1\CCC(CN(C)C)C1=O` (stereo not drawn), the TGI in experiment [1] amounted to 41.4 µM; in experiment [16], 27.4 µM; in experiment [2] it was 28.7 µM; in [3], 32.6 µM; in [17], 34.3 µM; in experiment [4] it was 20.7 µM. Moreover, the TGI in [5] was 31.7 µM; in experiment [7], greater than 41.7 µM; in [8], 30.8 µM; in experiment [9], 23.9 µM; in experiment [10] it was 18.4 µM; in experiment [11], 17 µM. Further, the TGI worked out at 27.1 µM in experiment [18]; 36.9 µM in [12]; 11.7 µM in experiment [13]; 29.5 µM in experiment [14]; 30.3 µM in experiment [19]; 28.3 µM in [15].
Take `CN(C)CCNC(=O)c1cccc2c(Nc3ccc(S(=O)(=O)N=C(N)N)cc3)c3ccccc3nc12`: the TGI came to 26.6 µM in [1]; 45 µM in experiment [3]; 27.9 µM in experiment [17]; 67 µM in experiment [4]; 39.2 µM in experiment [5]; 69.1 µM in experiment [7]. In addition, the TGI was 6.83 µM in experiment [8]; 71.2 µM in experiment [9]; greater than 100 µM in [11]; 17.9 µM in experiment [12]; greater than 100 µM in experiment [13]; 10.1 µM in [14]. Moreover, the results for the TGI in [19] and in experiment [15] were 2.59 µM and 47.4 µM, respectively.
With `CCOC(=O)C1SC(=Nc2ccccc2)N=C1C` (stereo not drawn), the TGI in experiment [1], in experiment [2], in experiment [3], in [4], in experiment [5] and in experiment [6] was greater than 100 µM in each case. Moreover, the TGI is greater than 100 µM in experiment [7]; greater than 100 µM in experiment [8]; greater than 100 µM in experiment [9]; greater than 100 µM in [11]; 88.8 µM in experiment [18]; greater than 100 µM in experiment [12]. Further, the TGI in [13], in [14], in experiment [19] and in experiment [15] was greater than 100 µM throughout.
Take `C[N+](C)(C)CC1CCC/C1=N\OC(=O)c1ccccc1` (stereo not drawn): the TGI in experiment [1], in [16], in experiment [2], in experiment [3], in experiment [17] and in experiment [4] was greater than 100 µM each time. Moreover, the TGI in [5], in [6], in experiment [7], in experiment [8], in experiment [9] and in experiment [11] was greater than 100 µM in each case. In addition, the TGI in experiment [12], in experiment [13], in [14], in experiment [19] and in [15] was greater than 100 µM in each case.
As for `CCOC(=O)/C(=C/c1ccc(N(C)C)cc1)N(CC)CC`, the TGI in [1], in experiment [16], in experiment [2], in [3], in experiment [4] and in [5] was greater than 100 µM throughout. Further, the TGI in [6] is 89 µM; in experiment [7], greater than 100 µM; in experiment [8], greater than 100 µM; in experiment [9] it was greater than 100 µM; in experiment [10], greater than 100 µM; in [11] it was greater than 100 µM. Also, the TGI in experiment [18] was greater than 100 µM; in experiment [12] it was greater than 100 µM; in experiment [13], greater than 100 µM; in experiment [14], 94.2 µM; in experiment [19], 81 µM; in experiment [15] it was greater than 100 µM.
As for `Cn1cnnc1Sc1c([N+](=O)[O-])ncn1C`, the TGI in experiment [1] is greater than 100 µM; in experiment [16], greater than 100 µM; in experiment [2], 46.1 µM; in [3] it was greater than 100 µM; in experiment [17] it was greater than 100 µM; in experiment [4] it was greater than 100 µM. In addition, the TGI in experiment [5], in [6], in experiment [7], in experiment [8], in experiment [9] and in [10] was greater than 100 µM each time. Besides, the TGI is greater than 100 µM in [11]; 91.2 µM in experiment [18]; greater than 100 µM in experiment [12]; greater than 100 µM in experiment [13]; greater than 100 µM in experiment [14]; greater than 100 µM in experiment [15].
In the case of `O=[N+]([O-])c1ccc(-c2cnc3ccccn23)cc1`, the TGI in [1], in experiment [16], in [2], in [17], in experiment [4] and in experiment [5] was greater than 100 µM throughout. Further, the TGI in experiment [6], in experiment [7], in [8], in experiment [9], in experiment [10] and in experiment [11] was greater than 100 µM throughout. The TGI in [12], in [13], in [14], in experiment [19] and in experiment [15] was greater than 100 µM throughout.
Take `COC(=O)C(C(=O)Cc1ccccc1[N+](=O)[O-])C(=O)OC`: the TGI in experiment [1], in experiment [16], in experiment [2], in experiment [3], in experiment [17] and in experiment [5] was greater than 100 µM in each case. The TGI in [7], in experiment [8], in experiment [9], in experiment [10], in [11] and in experiment [18] was greater than 100 µM in each case. Also, the TGI in experiment [12], in [13], in experiment [14], in [19] and in experiment [15] was greater than 100 µM throughout.
Turning to `O=C1c2ccccc2C(=O)c2c1nc1ccccc1c2-c1cncc(-c2c3c(nc4ccccc24)C(=O)c2ccccc2C3=O)c1`, the TGI is greater than 62.8 µM in experiment [1]; greater than 100 µM in experiment [16]; 24.1 µM in [2]; 19.7 µM in experiment [3]; 4.22 µM in experiment [17]; greater than 45.8 µM in experiment [4]. In addition, the TGI was greater than 100 µM in [5]; 3.51 µM in experiment [6]; 27.1 µM in [7]; 12.2 µM in experiment [8]; 28.7 µM in experiment [9]; 71.1 µM in experiment [10]. For the same compound, the TGI in experiment [11] is greater than 61.6 µM; in experiment [18] it was greater than 43.7 µM; in experiment [12], greater than 82.7 µM; in [13], 37.8 µM; in experiment [14] it was 43.6 µM; in experiment [19], 18.3 µM. The compound also came in with a TGI in experiment [20] of 40 µM.
Consider `CC(=O)OCC1OC(OC2CC3C(C)(C)C(O)CC[C@]3(C)C3CCC45CC4(CCC5[C@@H](C)CC(O)C(O)C(C)(C)O)[C@]23C)C(O)C(O)C1O` (stereo partly drawn), for which the TGI in experiment [1], in [16], in experiment [2], in [3], in experiment [17] and in experiment [4] was greater than 10 µM each time. The TGI in [5], in experiment [6], in [7], in experiment [8], in experiment [9] and in experiment [10] was greater than 10 µM throughout. For the same compound, the TGI in [11], in [18], in experiment [12], in experiment [13], in experiment [14] and in experiment [19] was greater than 10 µM in each case. Moreover, the TGI in experiment [20] is greater than 10 µM.
